# Marks after values point to notes of the source that are not given here.
# How the values were obtained:
# [1] = biological target: T1, gamma-secretase complex (from CHO S1 cells) (Homo sapiens, UniProt P49768); test: Competitive displacement of biotinylated active site isostere (PS1/Nicastrin Western blot); assay type: binding
# T1 construct: expressed in transfected cells; host or cells: CHO S1 cells
# [2] = system: Notch signaling in SNC cells (rat NotchΔE, CBF-Luciferase); test: SNC dual cell assay, Notch signaling luciferase reporter; details: for EC50: Rattus norvegicus, read-out: SNC Notch Signaling EC50; for APP selectivity (cellular, SNC assay): text of Discussion
# [3] = system: APP metabolites in HEK293 cells stably expressing APPsw; test: APP metabolites by Western blot in inhibitor treated cells; details: approximately 1 X and 10 X ED50, overnight, cell extracts
# [4] = system: Aβ production in SNC cells (CHO APPSw); test: SNC dual cell assay, secreted Aβ1-x ELISA; details: Cricetulus griseus; for EC50: read-out: SNC Aβ EC50; for IC50: read-out: IC50 for inhibition of Aβ production in the SNC assay
# PDAPP mouse = system: PDAPP mouse; design: method as in earlier work; details: three and six months, doses which affected AD pathology; cited from earlier work
# brain Aβx-40 in FVB mice [5] = test: Acute reduction of brain Aβx-40 in wild-type FVB mice; assay type: in vivo, mouse
# Protocol: (§1) Water and food were available ad libitum. […] Control animals were dosed with vehicle.
# Statistical significance was determined by ANOVA.
# brain Aβ in PDAPP mice = test: Acute reduction of brain Aβ in PDAPP mice; assay type: in vivo, mouse; details: for reduction of brain Aβ1-x: 3 h
# Protocol: as §1
# Figure 4 Acute reduction of brain Aβ by ELN318463 in PDAPP (a) and FVB mice (b). The mice were dosed orally with vehicle, or ELN318463 at 30 mg/kg or 100 mg/kg and sacrificed 3 h post treatment. Brain Aβ1-x in PDAPP (a), or Aβx-40 in FVB (b) was quantified by ELISA following extraction in guanidine buffer as described in methods. ** denotes P < 0.01, *** denotes P < 0.001 by Mann-Whitney in A, and two-tailed Students t-test in (b). TEXT PRINTED IN THE PICTURE: (A) no label printed: Aβ reduction: 37% (30[mpk]); Aβ reduction: 48% (100[mpk]) | (B) no label printed: Aβ reduction: 18% (30[mpk]); Aβ reduction: 18% (100[mpk])
# [6] = Oral bioavailability in rat; details: in vivo, read-out: oral bioavailability F
# [7] = Compound levels in plasma and brain by LC-MS-MS; details: for concentration at 3 h: mouse
# brain Aβx-40 in FVB mice [8] = test: Seven-day b.i.d. repeat dose study, brain Aβx-40; details: seven days; for reduction of brain Aβ: three hours post last dose
# [9] = system: FVB mice (Math1 mRNA, body and organ weight, neutrophils); details: seven days b.i.d.; LY411575 5 mg/kg/dose; ELN475516 up to 1,000 mg/kg/dose
# [10] = system: thymic Hes-1 mRNA (Notch signaling); test: Thymic Hes-1 mRNA after single dose in FVB mice (TaqMan RT-PCR); assay type: in vivo, mouse; details: three hours
# Protocol: as §1
# [11] = system: duodenum and ileum of FVB mice; test: Seven-day b.i.d. repeat dose study, small intestine histopathology (goblet cell hyperplasia); details: for goblet cells in ileum sections / goblet cell hyperplasia: seven days b.i.d.; for goblet cells in ileum sections: H&E and PAS stained sections; for goblet cell hyperplasia: LY411575 5 mg/kg duodenum and ileum, ELN475516 any dose, duodenum
# [12] = Metabolism (N-glucuronidation); details: precluded longer-term studies in mice (or other models)
# brain Aβ in Tg2576 mice = system: brain Aβ in Tg2576 mice; design: method as in PMID 19671883; details: cited from earlier work
# [13] = single oral dose 30 mg/kg, three hours post dose
# [14] = 5 mg/kg/dose b.i.d., 7 days, goblet cell hyperplasia in affected animals
# [15] = 15 mg/kg/dose b.i.d., 7 days, N = 5
# [16] = 30 mg/kg/dose b.i.d., 7 days, N = 5
# [17] = 100 mg/kg/dose b.i.d., 7 days, N = 5
# [18] = 300 mg/kg/dose b.i.d., 7 days, N = 5
# [19] = 600 mg/kg/dose b.i.d., 7 days, N = 5
# [20] = 1,000 mg/kg/dose b.i.d., 7 days, N = 5
# [21] = ileum, among all mice of the ELN475516 treated groups
smiles,measurement,setting,value
"CC(C)C[C@H](NC(=O)[C@H](Cc1ccccc1)C[C@@H](O)[C@H](Cc1ccccc1)NC(=O)OC(C)(C)C)C(=O)N[C@@H](Cc1ccccc1)C(N)=O [L-685,458, tert-Butyl (2S,3R,5R)-6-((S)-1-((S)-1-amino-1-oxo-3-phenylpropan-2-ylamino)-4-methyl-1-oxopentan-2-ylamino)-5-benzyl-3-hydroxy-6-oxo-1-phenylhexan-2-ylcarbamate]",captured gamma-secretase complex competed,"[1]; co-incubation with 10 μM, 50 nM biotinylated probe, preliminary experiments",> 90%
same,"concentration for 50% displacement of biotinylated active site isostere probe, above IC50 in the gammaAPP assay",[1]; no added substrate,approximately three
same,EC50,[2],184 ± 145 nM
same,effect on α-CTF and β-CTF of APP,[3],stabilize both α-CTF and β-CTF in a dose-dependent manner
same,EC50,[4],13.2 ± 4.5 nM
NC(=O)[C@@H](CCC(F)(F)F)N(Cc1ccc(-c2ncon2)cc1F)S(=O)(=O)c1ccc(Cl)cc1 [BMS-708163],"APP selectivity (cellular, SNC assay)",[2],57 X
same,IC50,[4],1.13 nM
O=S(=O)(c1ccc(C(F)(F)F)cc1)N1c2cc(F)c(F)cc2-c2[nH]ncc2[C@H]1C1CC1 [ELND006],tolerability in chronic study,PDAPP mouse,well tolerated
"O=C1NCCCC[C@H]1N(Cc1ccc(Br)cc1)S(=O)(=O)c1ccc(Cl)cc1 [ELN318463, N-(4-Bromobenzyl)-4-chloro-N-((3R)-2-oxoazepan-3-yl)benzenesulfonamide]",displacement of biotinylated active site probe,[1]; in the absence of substrate,No displacement
same,EC50,[2],2820 nM
same,Cellular Selectivity (APP/Notch),[2]; ratio of cellular Notch signaling and Aβ EC50,120
same,reduction of brain Aβx-40,brain Aβx-40 in FVB mice [5]; [13],18%
same,reduction of brain Aβx-40,"brain Aβx-40 in FVB mice [5]; single oral dose 100 mg/kg, 3 h post dose",18%
same,reduction of Aβx-40,brain Aβ in PDAPP mice; 30 mg/kg oral,20%
same,reduction of Aβx-40,brain Aβ in PDAPP mice; 100 mg/kg oral,25%
same,reduction of brain Aβ1-x,brain Aβ in PDAPP mice; single oral dose 30 mg/kg,37%
same,reduction of brain Aβ1-x,brain Aβ in PDAPP mice; single oral dose 100 mg/kg,48%
same,bioavailability,[6],30%
same,concentration at 3 h,"[7]; PDAPP, brain, po, 30 mg/kg",690 nM
same,concentration at 3 h,"[7]; PDAPP, brain, po, 100 mg/kg",1870 nM
same,concentration at 3 h,"[7]; female, FVB/N, brain, po, 30 mg/kg",754 nM
same,concentration at 3 h,"[7]; female, FVB/N, brain, po, 100 mg/kg",2700 nM
same,EC50,[4],23.4 ± 8.6 nM
"C[C@H](NC(=O)[C@@H](O)c1cc(F)cc(F)c1)C(=O)N[C@@H]1C(=O)N(C)c2ccccc2-c2ccccc21 [LY411575, (S)-2-((S)-2-(3,5-Difluorophenyl)-2-hydroxyacetamido)-N-((S)-5-methyl-6-oxo-6,7-dihydro-5H-dibenzo(b,d)azepin-7-yl)propanamide, reference compound]",EC50,[2],1.8 ± 1.35 nM
same,reduction of brain Aβ,brain Aβx-40 in FVB mice [8]; 5 mg/kg b.i.d. oral,83%
same,reduction of brain Aβx-40,"brain Aβx-40 in FVB mice [5]; single oral dose 10 mg/kg, three hours post dose",74%
same,Math1 mRNA levels in duodenum and ileum,[9],robust elevation
same,reduction of thymic Hes-1 mRNA,[10]; single oral dose 10 mg/kg,60%
same,EC50,[4],0.116 ± 0.011 nM
same,Ileum # animals affected,"[11]; 5 mg/kg/dose b.i.d., 7 days, N = 5",5
same,Duodenum # animals affected,"[11]; 5 mg/kg/dose b.i.d., 7 days, N = 5 (tissue lost from one animal)",4*
same,Duodenum Mean severity score,[11]; [14],2
same,Ileum Mean severity score,[11]; [14],3
same,goblet cells in ileum sections,[11],moderate increase in goblet cells
same,goblet cell hyperplasia,[11],readily apparent
"O=S(=O)(c1ccc(Cl)cc1)N1C2CCCC1c1cn[nH]c1C2 (centres unmarked) [ELN475516, 10-((4-Chlorophenyl)sulfonyl)-4,5,6,7,8,9-hexahydro-1H-4,8-epiminocycloocta(c)pyrazole]",EC50,[2],719 ± 225 nM
same,reduction of brain Aβ,brain Aβx-40 in FVB mice [8]; 15 mg/kg/dose b.i.d. oral,33%
same,"maximal effect, reduction of brain Aβ",brain Aβx-40 in FVB mice [8]; >100 mg/kg b.i.d. oral,74%
same,brain Aβ levels by 24 hours post dose,"brain Aβx-40 in FVB mice [5]; all treatment groups (30, 100, 300 mg/kg)",returning to baseline
same,reduction of brain Aβ,"brain Aβx-40 in FVB mice [5]; single oral dose 30 mg/kg, 10 hours post dose",28%
same,reduction of brain Aβx-40,brain Aβx-40 in FVB mice [5]; [13],40%
same,reduction of brain Aβ,"brain Aβx-40 in FVB mice [5]; single oral dose 100 mg/kg, 10 hours post dose",33%
same,reduction of brain Aβ,"brain Aβx-40 in FVB mice [5]; single oral dose 100 mg/kg, 14 hours post dose",14%
same,reduction of brain Aβ,"brain Aβx-40 in FVB mice [5]; single oral dose 300 mg/kg, 10 hours post dose",56%
same,reduction of brain Aβ,"brain Aβx-40 in FVB mice [5]; single oral dose 300 mg/kg, 14 hours post dose",29%
same,reduction of brain Aβx-40,"brain Aβx-40 in FVB mice [5]; single oral dose 300 mg/kg, three hours post dose",71%
same,time of maximal reduction of brain Aβ post dose,"brain Aβx-40 in FVB mice [5]; single oral dose 30, 100, 300 mg/kg",three
same,Math1 mRNA levels in duodenum and ileum,[9],No effects
same,thymic Hes-1 mRNA,[10]; single oral dose 300 mg/kg (highest dose tested),statistically significant reduction
same,reduction of cortical Aβ1-x,"brain Aβ in PDAPP mice; single oral dose 10 mg/kg, three hours",31%
same,reduction of brain Aβ1-x,brain Aβ in PDAPP mice; single oral dose 30 mg/kg,45%
same,metabolic liability,[12],Limiting N-glucuronidation
same,terminal plasma compound levels,"[7]; acute single dose study, highest dose tested (300 mg/kg), FVB mice",12.3 µM
same,concentration at 3 h,"[7]; female, FVB, in vivo, 15 mg/kg",187 nM
same,concentration at 3 h,"[7]; female, FVB, in vivo, 1000 mg/kg/dose",12300 nM
same,EC50,[4],8.73 ± 3.96 nM
same,Duodenum # animals affected,[11]; [15],0
same,Ileum # animals affected,[11]; [15],0
same,Duodenum # animals affected,[11]; [16],0
same,Ileum # animals affected,[11]; [16],4
same,Ileum Mean severity score,"[11]; 30 mg/kg/dose b.i.d., 7 days, affected animals",0.5
same,Duodenum # animals affected,[11]; [17],0
same,Ileum # animals affected,[11]; [17],2
same,Ileum Mean severity score,"[11]; 100 mg/kg/dose b.i.d., 7 days, affected animals",1.25
same,Duodenum # animals affected,[11]; [18],0
same,Ileum # animals affected,[11]; [18],0
same,Duodenum # animals affected,[11]; [19],0
same,Ileum # animals affected,[11]; [19],2
same,Ileum Mean severity score,"[11]; 600 mg/kg/dose b.i.d., 7 days, affected animals",0.5
same,Duodenum # animals affected,[11]; [20],0
same,Ileum # animals affected,[11]; [20],1
same,Ileum Mean severity score,"[11]; 1,000 mg/kg/dose b.i.d., 7 days, affected animals",0.5
same,number of mice with a questionable increase in goblet cells,[11]; [21],8
same,number of mice with no increase in goblet cells,[11]; [21],21
same,goblet cells in ileum sections,[11],no apparent dose-related increase
same,goblet cell hyperplasia,[11],not observed
O=S(=O)(N[C@H](CO)C(C(F)(F)F)C(F)(F)F)c1ccc(Cl)s1 [GSI-953],"APP selectivity (cellular, SNC assay)",[2],45 X
same,dose producing a similar magnitude effect (33% brain Aβ reduction),brain Aβ in Tg2576 mice,5 mg/kg
same,reduction of brain Aβx-40,brain Aβx-40 in FVB mice [5]; [13],33%
same,IC50,[4],8 nM
